Results as given in publication PMC9798707, “Targeting SOST using a small-molecule compound retards breast cancer bone metastasis” (Molecular Cancer, 2022).

Target: T1, SOST (Homo sapiens, UniProt Q9BQB4)
T1 construct: commercial recombinant SOST (SinoBio 10593-H07H), biotinylated and immobilized on Octet SSA biosensors
T1 sequence (Q9BQB4 24-213): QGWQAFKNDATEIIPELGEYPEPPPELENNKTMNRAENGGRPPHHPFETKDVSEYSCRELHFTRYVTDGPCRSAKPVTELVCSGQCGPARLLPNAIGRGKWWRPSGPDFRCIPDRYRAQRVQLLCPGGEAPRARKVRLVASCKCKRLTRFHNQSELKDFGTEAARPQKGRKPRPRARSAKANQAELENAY
Assay: biochemical
Set-up: biolayer interferometry (Octet K2), compound binding to immobilized biotinylated SOST, multi-concentration
Details: multi-concentration BLI, 30 C
Protocol: The affinity of S6 binding to SOST was measured, as described previously using an Octet K2 instrument (ForteBio). All assays were run at 30 °C with continuous shaking of 1000 RPM using the assay buffer of 0.1% BSA, 0.01% Tween-20 and 1% DMSO in PBS. SOST (10,593-H07H, SinoBio, Beijing, China) at 0.15 mg/ml was dissolved in sterile water, biotinylated and immobilized onto the Octet SSA biosensors. S6 (C29H24N6O2S, molecular weight 520.62, Chemdiv, USA) was dissolved in PBS and adjusted to different concentrations for BLI. After each round of association and disassociation, the SOST-contained sensors were washed with the assay buffer for 10 min to remove nonspecifically bound molecules. Raw kinetic data were obtained. The kon and koff values were analyzed using the software provided and the Kd values were calculated, based on double reference subtraction. We next sought to model the interaction of SOST with STAT3 and identify its inhibitors from a small-molecule chemical library (Fig. 4A). […] Subsequently, we performed virtual screening for compounds that might block the binding of SOST to STAT3 (Fig. 4C). We screened approximately 120,000 compounds and obtained 38 candidates. We tested single-concentration of them in BLI test. Data from 35 of these compounds are shown in Figure S4 and SI Table 1, except for compounds 2, 10, and 25, which could not be detected due to poor solubility. […] compounds (6, 11, 12, 17, 22, 24, 34, 38) were screened by multi-concentration gradients to obtain R2, Kd, kdis, and response parameters (Fig. 4D-E, Fig. S5 and SI Table 2). Four compounds, 6, 11, 28, and 34, were selected for drug sensitivity testing (Fig. 4F and Fig. S5). […] S6 boudn to SOST with a high affinity (Fig. 4G).

- Kd: 399 µM
- kon: 765 M⁻¹ s⁻¹
- koff (read-out: kdis): 0.305 s⁻¹
Structure (SMILES): Cc1ccc(-c2nnc(Nc3ccccc3)c3ccccc23)cc1S(=O)(=O)NCc1nc2ccccc2[nH]1 [compound 6, S6]
